Test results: patent publication US10053666B2, “Medium for preparing a neural cell and usage thereof” (SHENZHEN CELL INSPIRE BIOTECHNOLOGY CO., LTD., priority 2014, dated 2018)

How the values were obtained:
IMR90 = assay: Conversion of fibroblast cell line to neural cell / iOPC in neural induction medium; assay type: cell-based, human; settings: for conversion into neural cell: 10 μM in neural induction medium, IMR90
Protocol: (§1) Using the same method with EXAMPLE 1, cultured fiber cell line IMR90 and WI38 with neural induction medium including 10 μM Y27632, Palomid 529, LY294002, PF562271 or rapamycin.
(§2) In contrast, after 4 weeks in the same induction medium without ROCK inhibitor, cells kept fibroblast morphology with negative staining of O4, A2B5, and S100β (data not shown). […] To confirm conversion of fibroblasts to iOPCs by ROCK inhibitor, additional two human primary fibroblast cell lines, IMR90 and WI38, were tested using the same fibroblast—OPC conversion conditions. Consistent with the results from adult dermal cells, inventors observed 60-80% of fibroblast—OPC conversion in these two cell lines (data not shown). Next, inventors assessed whether the iOPCs could differentiate into mature oligodendrocytes. After removing growth factors and addition of thyroid hormone (a known inducer of oligodendrocyte differentiation) in cell culture medium, about 70% of the iOPCs differentiated into cells with a multiprocessed morphology typical of oligodendrocytes within 3-7 days (FIG. 2b). The oligodendrocytes expressed myelin basic protein (MBP), an integral protein component of the myelin sheath, and other defining markers of mature oligodendrocytes, including myelin-associated glycoprotein and myelin oligodendrocyte glycoprotein (FIG. 2b). Thus, inventors concluded that ROCK inhibitor-induced iOPCs can be further differentiated into mature functional oligodendrocytes.

WI38 = assay: as above; assay type: cell-based, human; settings: for conversion into neural cell: 10 μM in neural induction medium, WI38
Protocol: as §1, §2

IMR90 fibroblasts = assay: Direct conversion of fibroblasts to neurons and astrocytes; assay type: cell-based, human
Protocol: To assess the general application of ROCK inhibitor for direct conversion of different neural cells, inventors tweaked the protocol for induction of iOPCs and successfully converted fibroblasts to typical neurons and astrocytes. using the following procedure:
at Day 1, coat tissue culture 24-well plate with 0.1 mg/ml Poly-L-ornithine solution (sigma, P4957) for at least 3 hours; wash wells 3 times with autoclaved MilliQ water, 5 mins each; add 500 ul/well of 2 μg/ml Fibronectin (sigma, F0556) and 10 μg/ml Laminin (ROCHE, 11243217001) solution in 1×PBS and place in incubator overnight to coat. At Day 2, aspirate the F/L solution from the well, wash with basic medium and plate fibroblast cells with basic medium at 2×10^4 cells per well. At Day 3, aspirate basic medium from the well, wash with PBS once, and feed cells with induction medium. From Day 6-10, when cells change their morphology into neural-like cells, culture cells with mature medium or OPC medium.

dermal fibroblasts = assay: Immunostaining of OPC-specific biomarkers after 7-day induction; assay type: cell-based, human
Protocol: After 7-day induction with ROCK inhibitor treatment, cells were fixed and analyzed by immunostaining of the OPC-specific biomarker, O4. Immunofluorescence staining was performed as following steps:
Briefly, 5×10^4 modified human fibroblasts were planted on coated glass coverslips the day before induction. After induction, cells were fixed for 20 min at room temperature in 4% paraformaldehyde in PBS, permeabilized for 30 min in PBS containing 0.2% Triton X-100 and 10% normal goat serum (NGS), and incubated overnight at 4° C. in PBS containing 10% NGS and primary antibodies. Then cells were washed three times with PBS and incubated for 2 h at room temperature with anti-rabbit or anti-mouse secondary antibodies Alexa Fluor-488 or Alexa Fluor-594 (1:500, Invitrogen). The images were acquired by immunofluorescence microscope or Zeiss LSM 510 META confocal microscope with 40×, 1.3 numerical aperture oil-immersion objective.
The following antibodies were used for the immunofluorescence studies: mouse anti-04 (Millipore, 1:50), rabbit anti-NF (Sigma-Aldrich, 1:1000), mouse anti-A2B5 (Millipore, 1:50), MBP (1:100, Covance; 1:100, Abcam), MAG (Millipore, 1:50), MOG (Millipore, 1:50).

[1] = system: human adult dermal fibroblasts; assay: Screening of protein kinase inhibitor library for fibroblast-OPC conversion; assay type: cell-based; settings: with retinoic acid (RA), neural induction medium, quantified on day 7
Protocol: 1. Coated cell culture 24-well plate with 0.1 mg/ml Poly-L-ornithine solution (sigma, P4957) for at least 3 hours. Then washed wells 3 times with autoclaved MilliQ water, 5 mins per time.
2. Added 500 ul/well of […] Fibronectin (sigma, F0556) and […] Laminin (ROCHE, 11243217001) solution in 1×PBS and placed in incubator overnight to coat.
3. Aspirated the Fibronectin/Laminin solution from the wells, washed with culture medium.
4. Plated fibroblast cells with Basic Medium at 2×10^4 cells (human adult dermal fibroblasts, ATCC, PCS-201-012) per well, cultured overnight. The Basic Medium comprises: DMEM high glucose (HyClone, SH30022), 10% FBS (Fisher Scientific, SH3007003), 10 mM HEPES (CORNING 25060-CL), 1×MEM NEAA (100×) (GIBCO, 11140) (MEM Non-Essential Amino Acids Solution), 1 mM Na Pyruvate (GIBCO, 25000), 1×2-Mercaptoethanol (1000×) (GIBCO, 21985), 1× Glutamax (100×) (GIBCO, 35050), penicillin/streptomycin.
5. Aspirated Basic Medium from the wells.
7. Fed wells with Induction Medium. Changed medium every two days. […]

Structure (SMILES) | conversion into neural cell (IMR90) | conversion into neural cell (WI38) | staining of astrocyte-specific biomarker GFAP in induced astrocytes (IMR90 fibroblasts; induced astrocytes) | staining of neuronal biomarkers Tuj and MAP2 in induced neuronal cells (IMR90 fibroblasts; induced neuronal cells (iNCs)) | dermal fibroblasts converted to O4-positive cells with OPC morphology (dermal fibroblasts; 7-day induction) | staining with additional OPC markers A2B5 and S100β (dermal fibroblasts; O4 positive cells after 7-day induction) | efficiency of conversion of human fibroblasts into iOPCs (OPC positive cells counted by morphology) [1] | fibroblast-OPC conversion (IMR90; IMR90, same conversion conditions (data not shown)) | fibroblast-OPC conversion (WI38; WI38, same conversion conditions (data not shown))
CN(c1ncccc1CNc1nc(Nc2ccc3c(c2)CC(=O)N3)ncc1C(F)(F)F)S(C)(=O)=O [PF562271] | converted into neural cell | converted into neural cell |  |  |  |  |  |  | 
C[C@@H](N)[C@H]1CC[C@H](C(=O)Nc2ccncc2)CC1 [Y27632] | converted into neural cell | converted into neural cell | positive staining | positive staining | about 80% | positive staining | ~80% | 60-80% | 60-80%
COc1ccc(COc2cc3oc(=O)c4cc(C(C)O)ccc4c3cc2OC)cc1 (stereo not shown) [Palomid 529] | converted into neural cell | converted into neural cell |  |  |  |  |  |  | 
